Source: patent publication US10942159B2, “Product sustainability scorecard” (Symrise AG, priority 2016, dated 2021)

Key:
[1] = Product Sustainability Scorecard: process safety with regard to human toxicity (Product Tox score from GHS H-phrases and supplier score); details: consolidated scorecard score, normalized scale 0 to 100 without dimension
From the text: (§1) Hazard statements form part of the ‘Globally Harmonized System of Classification and Labelling of Chemicals’ (GHS). They are intended to form a set of standardized phrases about the hazards of chemical substances and mixtures.
(§2) H200: Physical Hazards (=Toxicity and Eco Toxicity)
H300: Health Hazards (=Toxicity)
(§3) Scheme 4 and 5: Scoring • STEP 1 Evaluation of the ‘(Eco) Toxicity Material Score’ and ‘Critical By-Product Score’ of each reactant and its potential by-products based on the safety according to material properties:
(§4) • STEP 2 Evaluation of the ‘(Eco) Tox Supplier Score’ of each reactant based on process safety according to chemical handling (see appendix for further information):
(§5) • STEP 3 Calculation of the overall ‘(Eco) Tox Score’ of each reactant and the final product. […] If the supplier score is better, it outweighs the material score—following the assumption that a safe and controlled production environment is able to avert the risks of hazardous materials: MAX(‘(Eco) Tox Material Score’;‘(Eco) Tox Supplier Score’)=(Eco) Tox Score • (ii) Composed products: For composed products the (Eco) Tox Score combines the hazard and supplier information of the composed product itself (calculated as above) with the (Eco) Tox Score of its reactants. […]
The score for the overall human toxicity S(HTOX) is calculated according to the following equation (4): S(HTOX)=⅔*MAX(Ma;Pa)+⅓*(Mb*Cb)+ . . . […]

[2] = Product Sustainability Scorecard: biodegradability score according to OECD Method 301/302; details: consolidated scorecard score, scale 0 to 100; score equals % biodegradation after 28-day OECD 301 test
Procedure: Biodegradation is one of the most important factors in assessing the environmental fate of chemicals. Biodegradation is the chemical dissolution of materials by bacteria, fungi, or other biological means. Biodegradability is evaluated according to the OECD Method 301/302 or equivalent. The tests of the OECD test series 301 (A-F) verify whether a substance is able for complete biodegradation under aerobic conditions. Different test methods are available for well or poorly soluble as well as volatile substances. The test usually takes 28 days. Test items must reach 60% biodegradation within 10 days to be classified as ‘ready biodegradable’.
Scheme 1: Scoring • STEP 1 Evaluation of the “Biodegradability Score” of the fragrance raw material based on the following scoring system
The score for biodegradability of the compound or the compounds is evaluated according to OECD Method 301/302 or equivalent.

[3] = Product Sustainability Scorecard: process safety with regard to ecological toxicity (Product EcoTox score from GHS H-phrases and supplier score); details: consolidated scorecard score, normalized scale 0 to 100 without dimension
From the text: as §1, §2
H400: Environmental Hazards (=Eco Toxicity)
as §3, §4, §5

Biodegradability [2]: 100.00
Substance: 44_Dihydro Myrcenol [44DHM]
Product Tox [1]: 80.38
Product EcoTox [3]: 87.73
